Measurements: patent US20100273780A1, “SUBSTITUTED 8-HETEROARYL XANTHINES” (PGXHEALTH, LLC, priority 2003, published 2010)

molecular target: T1, rat A2B receptors (rA2B) (Rattus norvegicus, UniProt P29276); experiment: Radioligand competition binding (125I-ABOPX) at rat A2B receptors in HEK-293 membranes; settings: displacement of specific [125I]ABOPX binding at rat A2B receptors expressed in HEK-293 cells; read-out: RatA2B Ki
T1 construct: expressed in transfected cells; host or cells: HEK-293 cells, stably transfected (G418 selection); membranes
T1 sequence (P29276 1-332): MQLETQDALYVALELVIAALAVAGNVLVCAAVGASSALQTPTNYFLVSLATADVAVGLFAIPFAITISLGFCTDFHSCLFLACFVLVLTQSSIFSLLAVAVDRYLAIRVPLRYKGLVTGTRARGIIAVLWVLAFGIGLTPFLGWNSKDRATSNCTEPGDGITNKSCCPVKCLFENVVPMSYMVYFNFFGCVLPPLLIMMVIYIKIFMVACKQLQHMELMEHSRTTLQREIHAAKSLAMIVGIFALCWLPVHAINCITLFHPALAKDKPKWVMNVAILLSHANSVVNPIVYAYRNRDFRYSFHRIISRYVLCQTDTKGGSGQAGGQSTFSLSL
Experimental: The plasmid was amplified in competent JM109 cells and plasmid DNA isolated using Wizard Megaprep columns (Promega Corporation, Madison, Wis.).
Transfected HEK cells were grown under 5% CO2/[…] humidified atmosphere at a temperature of 37° C. Colonies were selected by growth of cells in 0.6 mg/mL G418. Transfected cells were maintained in DMEM supplemented with Hams F12 nutrient mixture (1/1), 10% newborn calf serum, 2 mM glutamine and containing 50 IU/mL penicillin, […], and 0.2 mg/mL Geneticin (G418, Boehringer Mannheim). Cells were cultured in 10 cm diameter round plates and subcultured when grown confluent (approximately after 72 hours).
At A2B receptors: Confluent monolayers of HEK-A2B cells were washed with PBS followed by ice cold Buffer A (10 mM HEPES, 10 mM EDTA, pH 7.4) with protease inhibitors (10 μg/mL benzamidine, 100 μM phenylmethanesulfonyl fluoride, and 2 μg/mL of each aprotinin, pepstatin and leupeptin). The cells were homogenized in a Polytron (Brinkmann) for 20 s, centrifuged at 30,000×g, and the pellets washed twice with buffer HE (10 mM HEPES, 1 mM EDTA, pH 7.4 with protease inhibitors). The final pellet was resuspended in buffer HE, supplemented with 10% sucrose and frozen in aliquots at −80° C. For binding assays membranes were thawed and diluted 5-10 fold with HE to a final protein concentration of approximately 1 mg/mL. To determine protein concentrations, membranes, and bovine serum albumin standards were dissolved in 0.2% NaOH/0.01% SDS and protein determined using fluorescamine fluorescence. Stowell, C.
After incubation, 20 minutes at room temperature, 50 μL, of 10 mg/mL Na-metabisulfite in water was added to quench the reaction. The reaction mixture was applied to a C18 HPLC column, eluting with a mixture of methanol and 5 mM phosphate, pH 6.0. After 5 min at 35% methanol, the methanol concentration was ramped to 100% over 15 min.
Radioligand binding experiments were performed in triplicate with 20-25 μg membrane protein in a total volume of 0.1 mL HE buffer supplemented with 1 U/mL adenosine deaminase and 5 mM MgCl2. The incubation time was 3 h at 21° C. Nonspecific binding was measured in the presence of 100 μM NECA. […] Membranes were filtered on Whatman GF/C filters using a Brandel cell harvester (Gaithersburg, Md.) and washed 3 times over 15-20 seconds with ice cold buffer (10 mM Tris, 1 mM MgCl2, pH 7.4). Bmax and KD values were calculated by Marquardt's nonlinear least squares interpolation for single a site binding models. Marquardt, D. M., J. Soc. Indust. Appl. […] Ki values for different compounds were derived from IC50 values as described. Linden, J., J. Cycl. Nucl. […] Data from replicate experiments are tabulated as means±SEM.

| Ki [nM] | Compound |
| --- | --- |
| < 500 | CCCn1c(=O)c2[nH]c(-c3ccc(Cl)nc3)nc2n(CCC)c1=O [Compound 1, 1,3-Dipropyl-8-(6-chloro-3-pyridyl)xanthine] |
| < 500 | CCCn1c(=O)c2[nH]c(-c3ccc(NCC)nc3)nc2n(CCC)c1=O [Compound 3, 1,3-Dipropyl-8-(6-ethylamino-3-pyridyl)xanthine] |
| < 500 | CCCn1c(=O)c2[nH]c(-c3ccc(NCCO)nc3)nc2n(CCC)c1=O [Compound 4, 1,3-Dipropyl-8-(6-(2-hydroxyethyl)amino-3-pyridyl)xanthine] |
| < 500 | CCCn1c(=O)c2[nH]c(-c3ccc(N4CCN(C(C)=O)CC4)nc3)nc2n(CCC)c1=O [Compound 5, 1,3-Dipropyl-8-[6-(4-acetylpiperazinyl)-3-pyridyl]xanthine] |
| < 500 | CCCn1c(=O)c2[nH]c(-c3ccc(N4CCCC4)nc3)nc2n(CCC)c1=O [Compound 8, 1,3-Dipropyl-8-(6-pyrrolidinylpyrid-3-yl)xanthine] |
| < 100 | CCCn1c(=O)c2[nH]c(-c3ccc(N4CCCN(C)CC4)nc3)nc2n(CCC)c1=O [Compound 9, 1,3-Dipropyl-8-{6-[4-methyl(perhydro-1,4-diazaepin-1-yl)]-3pyridyl}xanthine] |
| < 500 | CCCn1c(=O)c2[nH]c(-c3ccc(NC)nc3)nc2n(CCC)c1=O [Compound 10, 1,3-Dipropyl-8-(6-methylamino-3-pyridyl)xanthine] |
| < 500 | CCCn1c(=O)c2[nH]c(-c3ccc(NCC(C)O)nc3)nc2n(CCC)c1=O (stereo not drawn) [Compound 13, 1,3-Dipropyl-8-[6-(2-hydroxypropyl)amino-3-pyridyl]xanthine] |
| < 500 | CCCn1c(=O)c2[nH]c(-c3ccc(NCC(OC)OC)nc3)nc2n(CCC)c1=O [Compound 14, 1,3-Dipropyl-8-[6-(2,2-dimethoxyethyl)amino-3-pyridyl]xanthine] |
| < 100 | CCCn1c(=O)c2[nH]c(-c3ccc(NC(C)CO)nc3)nc2n(CCC)c1=O (stereo not drawn) [Compound 15, 1,3-Dipropyl-8-[6-(1-hydroxy-2-propyl)amino-3-pyridyl]xanthine] |
| < 100 | CCCn1c(=O)c2[nH]c(-c3ccc(N4CCOCC4)nc3)nc2n(CCC)c1=O [Compound 16, 1,3-Dipropyl-8-(6-morpholino-3-pyridyl)xanthine] |
| < 500 | CCCn1c(=O)c2[nH]c(-c3ccc(NCCOCCO)nc3)nc2n(CCC)c1=O [Compound 18, 1,3-Dipropyl-8-[[6-(2-hydroxyethoxy)ethylamino]-3-pyridy]xanthine] |
| < 500 | CCCn1c(=O)c2[nH]c(-c3ccc(N4CCNCC4)nc3)nc2n(CCC)c1=O [Compound 19, 1,3-Dipropyl-8-(6-piperazino-3-pyridyl)xanthine] |
| < 500 | CCCn1c(=O)c2[nH]c(-c3ccc(NCc4ccc(CN)cc4)nc3)nc2n(CCC)c1=O [Compound 21, 1,3-Dipropyl-8-[6-(4-aminomethylbenzylamino)-3-pyridyl]xanthine] |
| < 500 | CCCn1c(=O)c2[nH]c(-c3ccc(NC4CC4)nc3)nc2n(CCC)c1=O [Compound 23, 1,3-Dipropyl-8-(6-cyclopropylamino-3-pyridyl]xanthine] |
| < 5000 | CCCn1c(=O)c2[nH]c(-c3ccc(NC4CCCC4)nc3)nc2n(CCC)c1=O [Compound 39, 1,3-Dipropyl-8-[6-(cyclopentylamino)-3-pyridyl]xanthine] |
| < 5000 | CCCn1c(=O)c2[nH]c(-c3ccc(Cl)nc3)nc2n(CCc2ccc(OC)cc2)c1=O [Compound 54, 1-propyl-3-(4-methoxyphenyl)ethyl-8-(6-chloro-3-pyridyl)xanthine] |
| < 100 | CCCn1c(=O)c2[nH]c(-c3ccc(N4CCCNCC4)nc3)nc2n(CCC)c1=O [Compound 58, 1,3-Dipropyl-8-[6-(hexahydro-1,4-diazaepin-1-yl)-3-pyridyl]xanthine] |
| < 500 | CN(C(=O)c1cccnc1)c1ccc(-c2nc3c([nH]2)c(=O)n(CC2CC2)c(=O)n3CC2CC2)cn1 [Compound 69, 1,3-Dicylopropylmethyl-8-[6-[N-nicotinoylmethylamino]-3-pyridyl)xanthine] |
| < 500 | CCN(C(=O)c1cccnc1)c1ccc(-c2nc3c([nH]2)c(=O)n(CC2CC2)c(=O)n3CC2CC2)cn1 [Compound 70, 1,3-Dicylopropylmethyl-8-[6-[N-nicotinoylethylamino]-3-pyridyl)xanthine] |
| < 100 | CCn1c(=O)c2[nH]c(-c3ccc(NCc4ccccn4)nc3)nc2n(CC)c1=O [Compound 73, 1,3-Diethyl-8-[6-(2-pyridylmethylamino)-3-pyridyl]xanthine] |
| < 100 | CCn1c(=O)c2[nH]c(-c3ccc(NCc4cccnc4)nc3)nc2n(CC)c1=O [Compound 74, 1,3-Diethyl-8-[6-(3-pyridylmethylamino)-3-pyridyl]xanthine] |
| < 100 | CCn1c(=O)c2[nH]c(-c3ccc(NCc4cccc(OC)c4)nc3)nc2n(CC)c1=O [Compound 75, 1,3-Diethyl-8-[6-(3-methoxybenzylamino)-3-pyridyl]xanthine] |
| < 100 | CCCn1c(=O)c2[nH]c(-c3ccc(NCCc4ccccn4)nc3)nc2n(CCC)c1=O [Compound 78, 1,3-Dipropyl-8-[6-[2-(2-pyridyl)-ethylamino]-3-pyridyl]xanthine] |
| < 100 | CCn1c(=O)c2[nH]c(-c3ccc(NCCN4CCCC4)nc3)nc2n(CC)c1=O [Compound 81, 1,3-Diethyl-8-[6-[2-(1-pyrrolidinyl)-ethylamino]-3-pyridyl]xanthine] |
| < 500 | CCCn1c(=O)c2[nH]c(-c3ccc(NCCNC(C)=O)nc3)nc2n(CCC)c1=O [Compound 83, 1,3-Dipropyl-8-(6-(2-acetylaminoethyl)amino-3-pyridyl)xanthine] |
| < 500 | CCn1c(=O)c2[nH]c(-c3ccc(N(CCOC)C(=O)Nc4ccncc4)nc3)nc2n(CC)c1=O [Compound 95] |
| < 500 | CNc1ccc(-c2nc3c([nH]2)c(=O)n(C)c(=O)n3C)cn1 [Compound 97, 1,3-Dimethyl-8-(6-methylamino-3-pyridyl)xanthine] |
| < 5000 | C#CCn1c(=O)c2[nH]c(-c3ccc(N(CCOC)C(=O)c4cccnc4)nc3)nc2n(C)c1=O [Compound 100, 1-Propargyl, 3-methyl-8-[6-[N-nicotinoyl, N-(2-methoxyethyl)amino]-3-pyridyl)xanthine] |

| Compound | Ki [nM] |
| --- | --- |
| 1,3-Diethyl-8-[6-(N-(6-chloronicotinoyl)methylamino)-3-pyridyl]xanthine [Compound 130] | < 100 |
| 1,3-Diethyl-8-[6-[(N-phenylcarbamoyl)methylamino]-3-pyridyl)xanthine [Compound 61] | < 5000 |
| 1,3-Diethyl-8-[6-[N-(isoxazole-5-carbonyl)methylamino]-3-pyridyl)xanthine [Compound 108] | < 500 |
| 1,3-Diethyl-8-[6-[N-nicotinoylethylamino]-3-pyridyl)xanthine [Compound 62] | < 500 |
| 1,3-Dipropyl-8-[6-[N-(2-pyrazinecarbonyl)methylamino]-3-pyridyl)xanthine [Compound 109] | < 500 |
| 1,3-Dipropyl-8-[6-[N-(isoxazole-5-carbonyl)methylamino]-3-pyridyl)xanthine [Compound 110] | < 500 |
| 1,3-Dipropyl-8-[6-[N-isonicotinoylmethylamino]-3-pyridyl)xanthine [Compound 49] | < 100 |
| 1,3-diallyl-8-[6-(N-(6-chloronicotinoyl)methylamino)-3-pyridyl]xanthine [Compound 120] | < 100 |
| 1-Cyclopropyl-3-propyl-8-[6-[N-nicotinoylmethylamino]-3-pyridyl)xanthine [Compound 129] | < 100 |
| 1-Cyclopropylmethyl-3-ethyl-8-[6-[N-(6-chloronicotinoyl)methylamino]-3-pyridyl)xanthine [Compound 145] | < 100 |
